According to patent publication US12465607B2, “ALK inhibitors for treatment of ALK-negative cancer and plasma cell-mediated diseases” (UNIVERSITETET I OSLO, priority 2019, dated 2025):
“Also recorded” adds a separate entry of the source.

How the values were obtained:
L363-BTZ = assay: Myeloma cell line viability, CCK-8, 24 hr; format: cell-based, human; details: Homo sapiens; L363-BTZ, 24 hr treatment
Method: (§1) The Results are the means of 3 independent experiments. Note the concentration-dependent reduction of viability of myeloma cells.
(§2) The cell lines used were the human multiple myeloma cell lines L363 (DSMZ catalogue number ACC 49), AMO-1 (DSMZ catalogue number ACC 538) and ARH-77 (ATCC CRL-1621).
(§3) Multiple myeloma cell lines were maintained in RPMI-1640 culture medium (Sigma-Aldrich, Buchs, Switzerland) supplemented with 10% heat-inactivated fetal bovine serum (FBS), 100 μg/ml streptomycin and 100 U/ml penicillin/streptomycin (Sigma-Aldrich, Buchs, Switzerland). The bortezomib-resistant cell lines were established and maintained from their parental cell line by continuous drug exposure>12 months to their parental cell lines (Soriano et al, Leukemia 30: 2198-2207, 2016).
(§4) The viability of the cells was determined 24 hr post treatment using Cell Counting Kit-8 (CCK-8; MedChemExpress, NJ, USA) according to the manufacturer's instructions.

L363 = assay: Myeloma cell line viability, CCK-8, 24 hr; format: cell-based, human; details: Homo sapiens, L-363; L363, 24 hr treatment
Method: as §1, §2, §3, §4

AMO-1-BTZ = assay: Myeloma cell line viability, CCK-8, 24 hr; format: cell-based; details: Homo sapiens, 24 hr treatment
Method: as §1, §2, §3, §4

AMO-1 = assay: Myeloma cell line viability, CCK-8, 24 hr; format: cell-based; details: Homo sapiens, AMO1; AMO-1, 24 hr treatment
Method: as §1, §2, §3, §4

multiple myeloma cells = assay: Cytotoxic activity against multiple myeloma cells (FIG. 4, L363, AMO-1 and bortezomib-resistant clones); format: cell-based, human; details: FIG. 4, 24 hr treatment
Method: as §1, §2, §3, §4

[1] = tested on: human L363-BTZ (bortezomib-resistant) myeloma cells; assay: Intrafemoral L363-BTZ luciferase xenograft in NSG mice; format: in vivo; details: 7 days treatment from day 10; crizotinib 50 mg/kg orally daily; bortezomib 1 mg/kg i.v. twice
Method: In this figure, immunocompromised NSG mice were intrafemorally injected with human L363-BTZ (bortezomib-resistant) myeloma cells. The cells were equipped with luciferase for in vivo monitoring of disease progression. After 10 days, mice were treated with bortezomib i.v. twice over a 7 day period and with crizotinib orally every day over the 7 day period. The images on the left show examples of tumour load in the different groups at days 4 and 7 of treatment (days 14 and 17 post tumour inoculation), and the graph on the right depicts the average luciferase signal for each mouse in each cohort (n=4) normalised to day 0 of the treatment (day 10 post tumour inoculation). Statistical significance between the groups was assessed with two-way ANOVA and between the time-points using one-way ANOVA with Tukey post-test.
NSG (NOD-scid IL2Rgamma^null) mice were obtained from The Jackson Laboratory (No. 005557, CA, USA) and kept in isolated ventilated cages with food ad libitum. Age matched (6-8 weeks old) mice were injected with 0.5×10^5 L363-BTZ_Luc+_TdTomato+ multiple myeloma cells (equipped with luciferase vector for monitoring, obtained from Addgene: #72486) into the right femur. Tumour growth was monitored twice over the week following luciferin injection (150 mg/kg, obtained from BioVision, CA, USA). […]

CLL cells = assay: Viability of activated CLL cells from patients, CellTiter-Glo 72 h (IC50, DSS); format: cell-based, human; details: CLL cells from 12 new patients
Method: CLL cells from patients were stimulated by adherent murine L cells expressing CD40L, BAFF and April for 24 h. The L cells were then removed by immuno-magnetic separation. Washed CLL cells were plated into 384-well plate format (10,000 cells/well) and tested against crizotinib at 5 concentrations in 10-fold dilutions (plates dispensed by an Echo acoustic dispenser, LabCyte Inc., San Jose, CA, USA). The plate was incubated in a humidified environment at 37° C. and 5% CO2. Cell viability was determined after 72 h using the CellTiter-Glo (Promega, Madison, WI, USA) ATP assay according to the manufacturer's instructions and using an Envision 2102 Multilabel reader (PerkinElmer, Shelton, CT, USA). Relative percentage cell viability was calculated by normalising luminescence units for each well to negative (DMSO 0.1%) and positive (100 μM BzCl) control wells. Curve fitting was conducted to obtain IC50 values.
Quantitative scoring of differential drug sensitivity for individual drugs was calculated as drug sensitivity scores (DSS values, Yadav et al., Scientific Reports 4: 5193, 2014). DSS values were calculated for integrated multiple dose-response relationships in high-throughput compound testing as shown.

LTK = target: T1, LTK (Homo sapiens, UniProt P29376); assay: LTK inhibition: immunoblot of phosphorylated LTK in cells expressing LTK; format: cell-based; details: FIG. 5A: HeLa cells expressing flag-tagged LTK, 1 μM, 30 minutes
T1 construct: expressed in transfected cells; host or cells: HeLa cells
T1 sequence (P29376 17-864): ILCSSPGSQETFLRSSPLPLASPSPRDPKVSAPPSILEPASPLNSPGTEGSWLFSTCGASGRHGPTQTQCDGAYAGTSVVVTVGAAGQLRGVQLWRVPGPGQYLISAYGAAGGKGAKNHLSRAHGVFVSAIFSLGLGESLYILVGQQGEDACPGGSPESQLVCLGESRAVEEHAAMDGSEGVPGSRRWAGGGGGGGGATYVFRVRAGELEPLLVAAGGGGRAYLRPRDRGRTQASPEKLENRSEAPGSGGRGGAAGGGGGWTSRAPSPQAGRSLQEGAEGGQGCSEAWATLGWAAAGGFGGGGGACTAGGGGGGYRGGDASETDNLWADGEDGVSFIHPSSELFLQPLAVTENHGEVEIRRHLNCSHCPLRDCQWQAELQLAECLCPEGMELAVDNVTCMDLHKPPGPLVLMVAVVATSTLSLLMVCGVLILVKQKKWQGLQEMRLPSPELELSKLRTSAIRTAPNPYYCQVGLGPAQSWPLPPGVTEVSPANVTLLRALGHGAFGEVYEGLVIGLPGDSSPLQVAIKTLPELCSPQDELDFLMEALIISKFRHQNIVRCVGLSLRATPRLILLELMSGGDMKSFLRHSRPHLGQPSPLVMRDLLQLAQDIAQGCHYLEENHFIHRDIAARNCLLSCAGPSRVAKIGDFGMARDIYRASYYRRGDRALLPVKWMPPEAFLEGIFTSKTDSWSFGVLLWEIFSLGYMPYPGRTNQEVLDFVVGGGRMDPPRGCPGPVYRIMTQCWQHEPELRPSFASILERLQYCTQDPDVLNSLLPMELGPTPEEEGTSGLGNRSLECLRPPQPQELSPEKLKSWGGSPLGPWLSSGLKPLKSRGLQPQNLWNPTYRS
Method: (§5) Cells were washed twice with PBS and collected in lysis buffer (50 mM Tris-HCl, pH7.4; 1 mM EDTA, 100 mM NaCl, 0.1% SDS and 1% NP-40) supplemented with proteinase and phosphatase inhibitor (Pierce Protease and Phosphatase Inhibitor Mini Tablets, EDTA-free). Lysates were incubated on ice for 10 minutes followed by clearing centrifugation at 20,000×g at 4° C. for 10 min. Supernatants were transferred into fresh tubes and reducing loading buffer was added. Lysates were subjected to SDS-PAGE and transferred onto a nitrocellulose membrane using semi-dry transfer. The membrane was blocked (in ROTI buffer (Roth) or 5% milk in PBS with 0.1% tween) and probed with the appropriate primary antibodies. Subsequently membranes were incubated with horseradish peroxidase-conjugated secondary antibody. Immunoblots were developed using a chemiluminescence reagent (ECL clarity, BioRad) and imaged using ChemiDoc (BioRad).

HeLa cells = assay: ER-to-Golgi trafficking in HeLa cells (ERES staining, mannosidase-II RUSH reporter); format: cell-based; details: RUSH reporter 20 min after biotin
Method: (§6) In A, HeLa cells expressing flag-tagged LTK were treated with 1 μM of crizotinib or ceritinib for 30 minutes. Afterwards, cells were lysed and immunoblotted against phosphorylated LTK, which is used as a surrogate for the active form of LTK. […] B, HeLa cells were treated with 1 μM ceritinib for 30 minutes followed by fixation and staining for Sec31A to label ERES. Cells were imaged by confocal microscopy and ERES were counted using ImageJ. C, HeLa cells stably expressing mCherry-tagged mannosidase-II RUSH reporter. Cells were treated with biotin to release the reporter from the ER. After 20 min, a time point where most of the reporter has reached the Golgi, cells were fixed and immunostained for GM130 to label the Golgi apparatus. […] D, IgA secreting AMO-1 cells were treated for 3 h with the indicated doses of crizotinib and the amount of IgA in cell supernatant was determined by ELISA.

AMO-1 cells = assay: IgA secretion by AMO-1 cells, ELISA of supernatant; format: cell-based, human; details: 3 h
Method: as §6
Right: Secretion of Ig is reduced by ceritinib. The plasma cell line AMO-1 was washed and added to wells (10^6 cells/well) in the presence of titred ceritinib for 3 h. Supernatants were assayed for IgA secreted by the AMO-1 cells by use of the Human IgA ELISA Kit (Abcam, Cambridge, UK).
1×10^6/ml IgA-secreting AMO-1 cells were seeded in fresh medium with increasing doses of compounds of interest for 3 hr. […]

plasma cells = assay: Viability of in vitro-generated IRF4/BLIMP1 double positive end stage plasma cells; format: cell-based; details: Homo sapiens, B-cell, 120 h; B-cells stimulated 5 days, inhibitor day 5-7
Excerpt: Negatively selected normal B-cells from blood bank donors were stimulated with sCD40L, IL-21, IL-4 for 5 days. This protocol allows generation of 10-20% end differentiated plasma cells that express IRF4 and BLIMP1. From day 5-7, cells were exposed to titred crizotinib in A, or ceritinib in B.
In A and B, IRF4 vs BLIMP1 in gated CD19^+ B cells is shown. IRF4 and BLIMP1 double positive cells represent end stage plasma cells. Such plasma cells are gated (blue elliptic region) and percent plasma cells are shown. The conditions without inhibitor (0) and with linear Alk-inhibitor (crizotinib, A; ceritinib, B) are shown for concentrations 0.01 μM, 0.1 μM, 1 μM, 10 μM and 100 μM.

[2] = tested on: Hepatocellular carcinoma cells (HepG2); assay: Apoptosis (cleaved caspase 3 immunoblot) in HepG2 cells with doxorubicin; format: cell-based; details: 5 μM doxorubicin alone, 24 h
Method: In B, Hepatocellular carcinoma cells (HepG2) were treated with DMSO (untreated) or with increasing concentrations (1, 2 and 5 μM) of doxorubicin for 24 h and apoptosis was assessed by immunoblotting for cleaved caspase 3. […] Cells were also treated with the same concentrations of doxorubicin in the presence of 1 μM crizotinib for 24 h.
as §5

## CCc1cc2c(cc1N1CCC(N3CCOCC3)CC1)C(C)(C)c1[nH]c3cc(C#N)ccc3c1C2=O [alectinib, 9-ethyl-6,6-dimethyl-8-(4-morpholin-4-ylpiperidin-1-yl)-11-oxo-5H-benzo[b]carbazole-3-carbonitrile]
L363-BTZ
  IC50: 6220 nM
L363
  IC50: 6120 nM
AMO-1-BTZ
  IC50: 17600 nM
AMO-1
  IC50: 13300 nM
Multiple myeloma cells
  cytotoxic activity against multiple myeloma cells: cytotoxic activity

## CC(C)C[C@H](NC(=O)[C@H](Cc1ccccc1)NC(=O)c1cnccn1)B(O)O [bortezomib]
[1]
  tumour burden (luciferase signal): confirmed proteasome inhibitor resistance

## COc1cc(N2CCC(N3CCN(C)CC3)CC2)ccc1Nc1ncc(Cl)c(Nc2ccccc2P(C)(C)=O)n1 [brigatinib, 5-chloro-4-N-(2-dimethylphosphorylphenyl)-2-N-[2-methoxy-4-[4-(4-methylpiperazin-1-yl)piperidin-1-yl]phenyl]pyrimidine-2,4-diamine]
CLL cells
  patients with susceptible CLL cells, cut-off DSS=10: 4/12

## Cc1cc(Nc2ncc(Cl)c(Nc3ccccc3S(=O)(=O)C(C)C)n2)c(OC(C)C)cc1C1CCNCC1 [ceritinib, 5-chloro-2-N-(5-methyl-4-piperidin-4-yl-2-propan-2-yloxyphenyl)-4-N-(2-propan-2-ylsulfonylphenyl)pyrimidine-2,4-diamine]
LTK
  inhibition of LTK: inhibit LTK
L363-BTZ
  IC50: 790 nM
L363
  IC50: 1030 nM
AMO-1-BTZ
  IC50: 2770 nM
AMO-1
  IC50: 2090 nM
Multiple myeloma cells
  cytotoxic activity against multiple myeloma cells: cytotoxic activity
HeLa cells
  ER-to-Golgi trafficking: inhibits ER-to-Golgi trafficking
AMO-1 cells
  immunoglobulin (IgA) secretion: reduced; also recorded: inhibits immunoglobulin secretion
CLL cells
  patients with susceptible CLL cells, cut-off DSS=10: 11/12
Plasma cells
  IC50: < 1 nM

## COc1cccc2c1C(=O)c1c(O)c3c(c(O)c1C2=O)C[C@@](O)(C(=O)CO)C[C@@H]3O[C@H]1C[C@H](N)[C@H](O)[C@H](C)O1 [doxorubicin]
[2]
  cell death (cleaved caspase 3): only weakly induces cell death

## C[C@@H]1CN(C(=O)c2ccc(NC(=O)c3cc(O[C@H](C)c4c(Cl)ccc(F)c4Cl)c(N)nn3)cc2)C[C@H](C)N1 [ensartinib, 6-amino-5-[(1R)-1-(2,6-dichloro-3-fluorophenyl)ethoxy]-N-[4-[(3R,5S)-3,5-dimethylpiperazine-1-carbonyl]phenyl]pyridazine-3-carboxamide]
Multiple myeloma cells
  cytotoxic activity against multiple myeloma cells: cytotoxic activity
CLL cells
  patients with susceptible CLL cells, cut-off DSS=10: 11/12

## CN1CCN(c2ccc(C(=O)Nc3n[nH]c4ccc(Cc5cc(F)cc(F)c5)cc34)c(NC3CCOCC3)c2)CC1 [entrectinib, N-[5-[(3,5-difluorophenyl)methyl]-1H-indazol-3-yl]-4-(4-methylpiperazin-1-yl)-2-(oxan-4-ylamino)benzamide]
Multiple myeloma cells
  cytotoxic activity against multiple myeloma cells: cytotoxic activity
CLL cells
  patients with susceptible CLL cells, cut-off DSS=10: 12/12

## C[C@H]1Oc2cc(cnc2N)-c2c(nn(C)c2C#N)CN(C)C(=O)c2ccc(F)cc21 [lorlatinib]
Multiple myeloma cells
  cytotoxic activity against multiple myeloma cells: did not efficiently kill myeloma cells
CLL cells
  patients with susceptible CLL cells, cut-off DSS=10: 0/12
